Data on three compounds can be found in ChEMBL document CHEMBL1122370 (J Med Chem, 1983).

The subject of test [1] is Mus musculus. Put plainly: (§1) Average weight of the mouse after treating with 40 mg/kg dose for 1 day. On the set-up: unit not given here. It is filed as functional.
Test [2] relates to Mus musculus. Put plainly: Average weight of the mouse after treating with 20 mg/kg dose for 7 day. It is filed as functional.
For test [3], the system named is L1210. Put plainly: In vivo antitumor activity against L1210 leukemia in 17 mice measured as T/C values; T/C = 17/9. It is filed as functional, Mus musculus.
The test system of test [4] is L1210. Description: In vivo antitumor activity against L1210 leukemia in 5 mice measured as Increased life span at 20 mg/kg. It is filed as functional. The settings on record: Mus musculus.
Test [5] has as its system L1210. Description: In vivo antitumor activity against L1210 leukemia in 5 mice measured as median survival range at 40 mg/kg; value ranges from(11-21). It is filed as functional, Mus musculus.
Test [6] has as its system L1210. Description: In vivo antitumor activity against L1210 leukemia in 13 mice measured as T/C values; T/C = 13/9. It is filed as functional, Mus musculus.
The test system of test [7] is Mus musculus. Description: (§2) Average weight of the mouse after treating with 40 mg/kg dose for 7 days. It is filed as functional.
Test [8] deals with L1210. Put plainly: In vivo antitumor activity against L1210 leukemia in 5 mice measured as median survival range at 20 mg/kg; Value ranges from(11-19). The class given is functional, Mus musculus.
In test [9] the test system is Mus musculus. Put plainly: Average weight of the mouse after treating with 20 mg/kg dose for 1 day. It is filed as functional. On the set-up: unit not given here.
Test [10] relates to L1210. Put plainly: In vivo antitumor activity against L1210 leukemia in 5 mice measured as Increased life span at 40 mg/kg. The settings on record: Mus musculus. The class given is functional.
Test [11] deals with L1210. Put plainly: In vivo antitumor activity against L1210 leukemia in 5 mice measured as median survival range at 10 mg/kg; Value ranges from(14-22). It is filed as functional, Mus musculus.
The subject of test [12] is Mus musculus. Description: Average weight of the mouse after treating with 10 mg/kg dose for 7 days. The class given is functional.
For test [13], the system named is Mus musculus. Description: Average weight of the mouse after treating with 10 mg/kg dose for 1 day. It is filed as functional. On the set-up: unit not given here.
The subject of test [14] is L1210. Description: In vivo anti tumor activity against L1210 leukemia in 5 mice measured as Increased life span at 40 mg/kg. The class given is functional. The settings on record: Mus musculus.
The test system of test [15] is L1210. Description: In vivo antitumor activity against L1210 leukemia in 16 mice measured as T/C values; T/C = 16/9. It is filed as functional, Mus musculus.
In test [16] the test system is L1210. Put plainly: In vivo antitumor activity against L1210 leukemia in 5 mice measured as median survival range at 40 mg/kg; Value ranges from(21-31). It is filed as functional, Mus musculus.
The test system of test [17] is Mus musculus. The test is described as §1. The class given is functional.
Test [18] concerns L1210. Put plainly: In vivo antitumor activity against L1210 leukemia in 5 mice measured as T/C values; T/C = 22/9. It is filed as functional, Mus musculus.
The test system of test [19] is Mus musculus. The test is described as §2. On the set-up: unit not given beside the values. It is filed as functional.
The subject of test [20] is L1210. Put plainly: In vivo antitumor activity against L1210 leukemia in 5 mice measured as Increased life span at 10 mg/kg. It is filed as functional. The settings on record: Mus musculus.
For test [21], the system named is Mus musculus. Put plainly: Average weight of the mouse after treating with 20 mg/kg dose for 7 days. It is filed as functional. On the set-up: unit not given beside the values.
The test system of test [22] is L1210. Description: In vivo antitumor activity against L1210 leukemia in 5 mice measured as median survival range at 20 mg/kg; Value ranges from(15-17). It is filed as functional, Mus musculus.
In test [23] the test system is L1210. Description: In vivo antitumor activity against L1210 leukemia in 5 mice measured as Increased life span at 400 mg/kg. The class given is functional, Mus musculus.
Test [24] has as its system L1210. Put plainly: In vivo antitumor activity against L1210 leukemia in 15 mice measured as T/C values; T/C = 15/11. It is filed as functional, Mus musculus.
Test [25] relates to L1210. Put plainly: In vivo antitumor activity against L1210 leukemia in 5 mice measured as median survival range at 400 mg/kg; Value ranges from (14-20). The class given is functional, Mus musculus.
The test system of test [26] is Mus musculus. Description: Average weight of the mouse after treating with 400 mg/kg dose for 1 day. It is filed as functional.
Test [27] deals with Mus musculus. Put plainly: Average weight of the mouse after treating with 400 mg/kg dose for 7 day. The class given is functional.

For `Cc1cc(C)c(COC(=O)CCC(NC(=O)c2ccc(N(C)Cc3cnc4nc(N)nc(N)c4n3)cc2)C(=O)OCc2c(C)cc(C)cc2C)c(C)c1` (stereo not given), the Average weight is given as 22 in the test on Mus musculus [1] and 20.4 in the test on Mus musculus [9]. The Weight change in the test with Mus musculus [2] was found to be 0.8; with Mus musculus [7] it was 0. The T/C in the test with L1210 [3] and with L1210 [6] was 9 throughout. Further, in the test with L1210 [4], the ILS at 20 mg/kg is 44%. The Range in the test with L1210 [5] worked out at 21; with L1210 [8] it was 19. Besides, the ILS at 40 mg/kg in the test on L1210 [10] was found to be 88%.
For the compound `CN(Cc1cnc2nc(N)nc(N)c2n1)c1ccc(C(=O)NC(CCC(=O)OCc2cccnc2)C(=O)OCc2cccnc2)cc1` (stereo not given), the Range is given as 22 in the test on L1210 [11], 31 in the test with L1210 [16] and 17 in the test on L1210 [22]. For the same compound, the Weight change in the test on Mus musculus [12] worked out at 1.1; in the test on Mus musculus [19] it was 2; in the test on Mus musculus [21], 1. Besides, the Average weight in the test on Mus musculus [13] was determined as 21.3; with Mus musculus [17], 26; in the test with Mus musculus [9], 22. Moreover, the T/C with L1210 [3], in the test with L1210 [15] and in the test on L1210 [18] was 9 each time. The ILS at 40 mg/kg with L1210 [14] came out at 144%. In addition, the ILS at 20 mg/kg with L1210 [4] stood at 77%. In the test on L1210 [20], this compound registered an ILS at 10 mg/kg of 88%.
With `CN(Cc1cnc2nc(N)nc(N)c2n1)c1ccc(C(=O)NC(CCC(=O)OC(C)(C)C)C(=O)OC(C)(C)C)cc1` (stereo not given), the ILS in the test with L1210 [23] was determined as 36. This compound yielded a T/C in the test on L1210 [24] of 11. Moreover, the Range with L1210 [25] came to 20. In the test on Mus musculus [26], this compound yielded an Average weight of 27.6. Also, in the test with Mus musculus [27], the Weight change came out at 2.6.
